Reference: patent US20240239804A1, “FUROINDAZOLE DERIVATIVES AS ANTAGONISTS OR INHIBITORS OF GPR84” (Bayer Aktiengesellschaft, priority 2021, published 2024)
pIC50: −log10 of the molar value. Structures can show the parent of a compound that is named as a salt.

Target: T1, human GPR84 receptor (Homo sapiens, UniProt Q9NQS5)
T1 construct: frozen aliquots prepared by acCELLerate; host or cells: CHO-K1
Assay: cAMP HTRF assay for identification of cellular GPR84 antagonists
Assay type: cell-based
Conditions: CHO-K1 cells stably expressing human GPR84; Forskolin plus agonist 6-OAU; cAMP HTRF readout; average or median values
From the text: cAMP HTRF® Assay for Identification of Cellular GPR84 Antagonists
By using a Homogenous Time-Resolved Fluorescence (HTRF®) based assay (#62AM5PEJ, Cisbio, Condolet, France) the inhibition of the Gi-coupled GPR84 receptor can be detected. CHO-K1 cells stably expressing human GPR84 receptor (purchased from DiscoveRx, now Eurofins) were used and treated with Forskolin (F6886, Sigma, Germany) to stimulate membrane adenylyl cyclases and thereby unspecific cAMP formation. Activation of the Gi-coupled GPR84 by a natural or small molecule agonist (e.g. 6-n-octyl aminouracile, inhouse) results in inhibition of cellular cAMP formation which can be released again by antagonists to this receptor. Detection and quantification of cellular cAMP levels in this HTRF assay is achieved by interaction between a fluorescent cAMP tracer (cAMP-d2) and an Eu-cryptate labelled anti-cAMP antibody. Following excitation at 337 nm this pairing allows for the generation of a fluorescence resonance energy transfer (FRET) between the partners and results in FRET induced emissions at 665 nm and 620 nm, the latter representing background signal by Eu-cryptate labelled anti-cAMP antibody. Maximal signal is obtained in the absence of any cellular cAMP (no competition for the binding of the tracer to the antibody). Given the combination of the Gi coupling properties of GPR84 and the competitive nature of the detection system agonist treatment should result in an increase in the HTRF signal due to lowered cAMP levels. Any signal decrease in the presence of Forskolin, agonist and compound are indicative of antagonist mediated abrogation of GPR84 signalling.
For the assay, frozen aliquots of CHO-K1 cells expressing hGPR84 (prepared by acCELLerate, Hamburg, Germany) were thawed and a cell suspension (1.67E+06 cells/mL) in assay media (Ham's F12 Nutrient Mix, Thermo Fisher Scientific, Waltham, USA; 5% fetal calf serum, Biomol, Hamburg, Germany) containing cAMP-d2 (dilution 1:20, supplied with the kit #62AM5PEJ, Cisbio, Condolet, France) was prepared. After recovery of cells for 20 minutes at 37° C., 3 μL/well cell suspension including cAMP-d2 were added to a pre-dispensed assay plate (Greiner Bio-One, Kremsmuenster, Austria) containing 50 nl/well test compound in 100% DMSO or 100% DMSO as control. This was followed by a 30 minute incubation step at room temperature. The stimulation time was started by addition of 2 μL/well assay media containing 2.5×EC80 agonist 6-OAU and 2.5×EC90 Forskolin (negative control: 2.5×EC90 Forskolin in assay media) and was continued for 30 minutes at room temperature. The reaction was stopped by addition of 3 μL/well lysis buffer containing cAMP Eu-Cryptate antibody (dilution 1:20) (both supplied with the kit #62AM5PEJ, Cisbio, Condolet, France). To enable complete lysis, plates were incubated for 60 minutes at room temperature before measurement in an HTRF reader, e.g. a PHERAstar (BMG Labtech, Ortenberg, Germany).
From the fluorescence emissions at 665 nm (FRET) and at 620 nm (background signal of Eu-cryptate) the ratio (emission at 665 nm divided by emission at 620 nm×10000) was calculated and the data were normalized (reaction without test compound, only 100% DMSO=0% inhibition; all other assay components except agonist=100% inhibition). For dose response testing on the same microtiter plate, compounds were tested at 11 different concentrations in the range of 20 μM to 0.07 nM (20 μM, 5.7 μM, 1.6 μM, 0.47 μM, 0.13 μM, 38 nM, 11 nM, 3.1 nM, 0.89 nM, 0.25 and 0.07 nM; dilution series prepared before the assay at the level of the 100-fold conc. stock solutions by serial 1:3.5 dilutions in 100% DMSO) in duplicate values for each concentration. IC50 values were calculated by 4-parameter fitting using a commercial software package (Genedata Screener, Basel, Switzerland).
Examples were tested in selected biological assays one or more times. […]

T1 sequence (Q9NQS5 whole entry): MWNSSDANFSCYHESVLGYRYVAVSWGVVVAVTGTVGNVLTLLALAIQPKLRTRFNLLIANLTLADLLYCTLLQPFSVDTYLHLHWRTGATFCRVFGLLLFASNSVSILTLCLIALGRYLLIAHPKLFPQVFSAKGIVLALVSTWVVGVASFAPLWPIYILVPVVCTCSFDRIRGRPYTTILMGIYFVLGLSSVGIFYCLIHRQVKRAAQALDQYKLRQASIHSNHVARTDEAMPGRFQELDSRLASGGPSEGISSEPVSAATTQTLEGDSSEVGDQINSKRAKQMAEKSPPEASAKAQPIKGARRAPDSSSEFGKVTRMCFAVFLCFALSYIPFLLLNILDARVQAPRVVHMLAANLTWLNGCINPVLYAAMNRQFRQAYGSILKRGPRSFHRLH

pIC50 | Structure (SMILES)
7.34 | Cc1c(C(=O)NCC2CCCO2)oc2c1-c1nn(Cc3ccccc3Cl)cc1CC2 (racemic) [Example 9, 2-[(2-chlorophenyl)methyl]-8-methyl-N-[(2RS)-tetrahydrofuran-2-ylmethyl]-4,5-dihydro-2H-furo[2,3-g]indazole-7-carboxamide]
7.13 | Cc1c(C(=O)NCC2CCCO2)oc2c1-c1nn(Cc3cccc(Cl)c3)cc1CC2 (racemic) [Example 15, 2-[(3-chlorophenyl)methyl]-8-methyl-N-[(2RS)-tetrahydrofuran-2-ylmethyl]-4,5-dihydro-2H-furo[2,3-g]indazole-7-carboxamide]
7.24 | Cc1c(C(=O)NCC2CCCO2)oc2c1-c1nn(Cc3ccc(Cl)cc3)cc1CC2 (racemic) [Example 21, 2-[(4-chlorophenyl)methyl]-8-methyl-N-[(2RS)-tetrahydrofuran-2-ylmethyl]-4,5-dihydro-2H-furo[2,3-g]indazole-7-carboxamide]
6.80 | Cc1c(C(=O)NCC2CCCO2)oc2c1-c1nn(Cc3ccc(F)cc3Cl)cc1CC2 (racemic) [Example 92, 2-[(2-chloro-4-fluorophenyl)methyl]-8-methyl-N-[(2RS)-tetrahydrofuran-2-ylmethyl]-4,5-dihydro-2H-furo[2,3-g]indazole-7-carboxamide]
7.06 | Cc1c(C(=O)NCC2CCCO2)oc2c1-c1nn(Cc3cccc(Cl)c3)cc1CC2 (single isomer, unassigned) [Example 15-1]
6.26 | Cc1c(C(=O)NCC2CCCO2)oc2c1-c1nn(Cc3cccc(Cl)c3)cc1CC2 (single isomer, unassigned) [Example 15-2]
6.28 | Cc1c(C(=O)NCC2CCCO2)oc2c1-c1nn(Cc3ccc(Cl)cc3)cc1CC2 (single isomer, unassigned) [Example 21-1]
7.05 | Cc1c(C(=O)NCC2CCCO2)oc2c1-c1nn(Cc3ccc(Cl)cc3)cc1CC2 (single isomer, unassigned) [Example 21-2]
7.74 | Cc1ccc(Cn2cc3c(n2)-c2c(oc(C(=O)NC[C@@H]4CCCO4)c2C)CC3)cc1 [Example 1, 8-methyl-2-[(4-methylphenyl)methyl]-N-[(2S)-tetrahydrofuran-2-ylmethyl]-4,5-dihydro-2H-furo[2,3-g]indazole-7-carboxamide]

The remaining lines, values behind:

Structure (SMILES) | pIC50
Cc1c(C(=O)NC[C@@H]2CCCO2)oc2c1-c1nn(C(C)c3ccccc3F)cc1CC2 (mixture of isomers) [Example 95, 2-[(1RS)-1-(2-fluorophenyl)ethyl]-8-methyl-N-[(2S)-tetrahydrofuran-2-ylmethyl]-4,5-dihydro-2H-furo[2,3-g]indazole-7-carboxamide] | 6.12
Cc1ccccc1Cn1cc2c(n1)-c1c(oc(C(=O)NCC3CCCN3C(=O)OC(C)(C)C)c1C)CC2 (racemic) [Example 6, tert-butyl (2RS)-2-[{{8-methyl-2-[(2-methylphenyl)methyl]-4,5-dihydro-2H-furo[2,3-g]indazole-7-carbonyl}amino)methyl]pyrrolidine-1-carboxylate] | 5.65
Cc1ccccc1Cn1cc2c(n1)-c1c(oc(C(=O)NCC3CCCN3)c1C)CC2 (racemic) [Example 7, 8-methyl-2-[(2-methylphenyl)methyl]-N-{[(2RS)-pyrrolidin-2-yl]methyl}-4,5-dihydro-2H-furo[2,3-g]indazole-7-carboxamide] | 6.17
Cc1ccccc1Cn1cc2c(n1)-c1c(oc(C(=O)NCC3CCCN3)c1C)CC2 (racemic) [Example 7-3, 8-methyl-2-[(2-methylphenyl)methyl]-N-{[(2RS)-pyrrolidin-2-yl]methyl}-4,5-dihydro-2H-furo[2,3-g]indazole-7-carboxamide hydrochloride (1:1)] | 5.93
Cc1ccccc1Cn1cc2c(n1)-c1c(oc(C(=O)NCC3CCCN3)c1C)CC2 (single isomer, unassigned) [Example 7-1] | 6.14
Cc1ccccc1Cn1cc2c(n1)-c1c(oc(C(=O)NCC3CCCN3)c1C)CC2 (single isomer, unassigned) [Example 7-2] | 6.20
